Reference: patent US4677126A, “Oxa-fenchyl esters and amides of alpha-L-aspartyl-D-phenylglycine” (The Procter & Gamble Company, priority 1986, dated 1987)
Square brackets hold non-standard residues; d marks the D form. Peptide text beside a SMILES is read from it. Phg = N[C@H](C(=O)O)c1ccccc1

Assay: Sweetness intensity relative to sucrose, taste panel
Format: in vivo, human
Conditions: based on informal panel testing
From the text: The sweetness intensity of the esters and amides of the present invention relative to sucrose can be determined according to the following procedure:
Male subjects are chosen at random from a group of about 20 persons who have previously been selected on the basis of proven tasting acuity, i.e., persons who could easily recognize the four basic tastes (sweet, sour, bitter and salty) and who are adept at quantifying their own physiological response numerically. The subjects are asked to taste and expectorate about 10 ml of a test sample (temperature of about 22° C.) having dissolved therein the ester or amide. […] Sweetness intensity of the test sample is recorded by the subject making a mark on the linear scale at a point they consider equal in sweetness among the standard samples; interpolation between standards is encouraged. After completion of the panel, a five point numeric scale is superimposed on the linear scales to obtain numerical data; data is averaged and recorded to the nearest 0.25 unit. Equivalent sucrose sweetness is determined by referring to graphs of (w/v) sucrose concentration in the standard samples versus a linear numeric scale.
Sweetness intensity is calculated by dividing the concentration (w/v) of perceived sweetness by the concentration (w/v) of the ester or amide required to produce that sweetness. […]

SMILES | Sweetness (× Sucrose)
CC12CCC(O1)C(C)(C)C2OC(=O)[C@H](NC(=O)[C@@H](N)CC(=O)O)c1ccccc1 (stereo partly drawn) [Example 2, alpha-L-Aspartyl-D-phenylglycine-alpha-7-oxa-fenchyl ester] | 1000 × Sucrose

Same assay, conditions: based on informal panel testing; isolated diastereomer

SMILES | Sweetness intensity
CC12CCC(O1)C(C)(C)C2OC(=O)[C@H](NC(=O)[C@@H](N)CC(=O)O)c1ccccc1 (stereo partly drawn) [Example 2, alpha-L-Aspartyl-D-phenylglycine-alpha-7-oxa-fenchyl ester] | approximately 1000 X

Assay: not given
Conditions: literature / prior patents; cited from earlier work

SMILES | sweetness intensity, times that of sucrose | taste quality
C[C@@H](NC(=O)[C@@H](N)CC(=O)O)C(=O)NC1C(C)(C)SC1(C)C [2,2,4,4-tetramethylthietan-3-yl] | 2000 times that of sucrose | –
CC1CCCC(C)C1NC(=O)[C@@H](C)NC(=O)[C@@H](N)CC(=O)O (stereo partly drawn) [2,6-dimethylcyclohexyl] | 600 times that of sucrose | –
COC(=O)C(NC(=O)[C@@H](N)CC(=O)O)C(=O)OC1C2(C)CCC(C2)C1(C)C (stereo partly drawn) [methyl] | 22,200-33,200 times that of sucrose | –
COC(=O)[C@@H](NC(=O)[C@@H](N)CC(=O)O)c1ccccc1 [methyl ester of L-aspartyl-L-phenylglycine] (H-Asp-[Phg]-OMe) | 100-1000 times that of sucrose | quite sweet
C[C@@H](NC(=O)[C@@H](N)CC(=O)O)C(=O)NC(C1CC1)C1CC1 [dicyclopropylcarbinyl] | 1200 times that of sucrose | –
CC1CCC(C)C1NC(=O)[C@@H](C)NC(=O)[C@@H](N)CC(=O)O (stereo partly drawn) [2,5 dimethylcyclopentyl] | 520 times that of sucrose | –
O=C1NS(=O)(=O)c2ccccc21 [Saccharin] | about 300 times that of sucrose | lingering bitter aftertaste
COC(=O)[C@@H](Cc1ccccc1)NC(=O)[C@@H](N)CC(=O)O [methyl ester of L-aspartyl-D-phenylalanine] (H-Asp-[dF]-OMe) | – | bitter
CCOC(=O)C(NC(=O)[C@@H](N)CC(=O)O)C(=O)OC1C2(C)CCC(C2)C1(C)C (stereo partly drawn) [ethyl] | 4200-5400 times that of sucrose | –
C[C@@H](NC(=O)[C@@H](N)CC(=O)O)C(=O)NC1C(C)(C)S(=O)(=O)C1(C)C | 1000 times that of sucrose | –
C[C@@H](NC(=O)[C@@H](N)CC(=O)O)C(=O)NC1C2(C)CCC(C2)C1(C)C (stereo partly drawn) [fenchyl] | 320 times that of sucrose | –
COC(=O)[C@H](Cc1ccccc1)NC(=O)[C@@H](N)CC(=O)O [aspartame, alpha-L-aspartyl-L-phenylalanine methyl ester] (H-Asp-Phe-OMe) | 150-200 times that of sucrose | approaching that of sucrose

Assay: not given
Conditions: most carbonated beverages, pH about 2.5 to about 4.8; cited from earlier work

SMILES | hydrolytic stability in carbonated beverages
COC(=O)[C@H](Cc1ccccc1)NC(=O)[C@@H](N)CC(=O)O [aspartame, alpha-L-aspartyl-L-phenylalanine methyl ester] (H-Asp-Phe-OMe) | hydrolytically unstable
